Measurements from patent US20220056075A1, “METHOD FOR TREATING OPIOID USE DISORDER” (THE ADMINISTRATORS OF THE TULANE EDUCATIONAL FUND, priority 2019, published 2022).
Where “and” joins values, the source holds several entries; their conditions need not be identical. Equal entries are not always repeated. Entries after “also recorded” stand apart in the source; their conditions may differ.

Assays:
[1] = tested on: dopamine (DA) neurons in the posterior VTA; test: VTA dopamine cell soma morphology (TH staining, STEREO INVESTIGATOR); type: in vivo, rat; settings: 5 consecutive daily i.v. injections; morphine effect at 5.6 mg/Kg
Description: DA morphology analysis: Fifteen min following the final CPP test session, rats were anesthetized with a mixture of ketamine/xylazine (85/10 mg/Kg, i.p., respectively) and perfused intracardially with 200 mL of 0.1 mol/L phosphate buffered saline (PBS) immediately followed by 300 mL of 4% paraformaldehyde in 0.1 mol/L PBS (pH=7.4). Brains were removed and post-fixed at 4° C. in the same fixative for 18 h. After post-fixation, brains were incubated in 30% sucrose at 4° C. for 2 days and sectioned coronally on a cryostat at 40 μm at the level of the posterior VTA (Spiga et al., 2003; Chu et al., 2008). After 2 consecutive washes in PBS, sections were blocked with 5% normal donkey serum (NDS) for 1 h, and incubated with the primary antibody anti-tyrosine-hydroxylase (anti-TH, 1: 3000 Cell Signaling Technology, Danvers, Mass.) overnight at 4° C. Slices were washed twice in PBS, re-blocked for 1 h, and incubated with the secondary antibody ALEXA594 (Life Technologies, Carlsbad, Calif.), for 2 h. Sections were washed, mounted on slides with PROLONG GOLD (Life Technologies), and stored at 4° C. Posterior VTA sections were verified according to the atlas of Paxinos and Watson (2007). Images of the parabrachial pigmented area (PBP) and the paranigral area (PN) subregions of the posterior VTA were captured in z-stacks (1 μm) with at least 5 tissue slices per rat and 5-6 rats per drug group. STEREO INVESTIGATOR software (MBF Bioscience; Williston, Va.) was used to quantify soma size using the optical fractionator probe to survey a sample of neurons in each z-stack while the nucleator probe was used to measure the cross-sectional area and volume of each cell soma. The optical fractionator probe was used to quantify the number of cells in a particular section of tissue through systematic random sampling. Between 12 and 16 regions were surveyed per z-stack. While the optical fractionator probe utilized stereological techniques to select a random sample to be analyzed, the nucleator probe measured the cross-sectional area of each neuron. Therefore, the simultaneous use of these probes systematically assessed neurons in the PBP and PN regions of the VTA in each subject, and provided morphological data for these cells including surface area (μm^2) and volume (μm^3). Cell somas were eligible to be quantified if they were located within the counting frame and/or if the soma touched either of the nucleator frame's green borders. Neurons were ineligible if located outside the counting frame and/or if their soma touched the frame's red borders. After determining this optimum depth, the center of the soma was located and analyzed by the nucleator probe. To eliminate bias associated with tissue orientation, nucleator rays were randomly arranged between quantifications. […]

[2] = tested on: male and female rats; test: Naloxone-induced conditioned place aversion (CPA); type: in vivo, rat; settings: i.v. morphine 5.6 mg/Kg or ZH853 4.2 mg/Kg, naloxone 1 mg/Kg s.c. 4 h later
Description: Four hours later they received s.c. naloxone (1 mg/Kg) and were confined to one side of the apparatus (counterbalanced) for 20 min. The following day the animals received vehicle-then-saline rather than drug-then-naloxone. This cycle (drug+4 h+nlx+next day vehicle+saline) was repeated once, and the next day the animals had access to the entire apparatus (Post-cond).
To assess whether ZH853 induces the negative affect typical of opioid withdrawal, the conditioned place aversion (CPA) test was conducted.

[3] = tested on: Male Sprague Dawley rats; test: Locomotor sensitization during CPP conditioning sessions; type: in vivo, rat; settings: 1.8, 3.2, 5.6 mg/Kg i.v., 5 daily injections, compared to vehicle
Description: (§1) Conditioned Place Preference (CPP) and locomotor activity: Standard CPP chambers (TSE; Chesterfield, Mo.) were used to measure baseline activity and conditioning trials. Baseline activity was measured over 2 days with 4 trials per day (2 in the AM, and 2 in the PM) lasting 20 min each. […] Conditioning trials were conducted for 5 days and tested in an unbiased manner such that drug/environment pairings were counterbalanced for time of drug injection (AM or PM) and compartment (preferred or non-preferred) based on baseline activity. […] This indicates a lack of carry-over effects of drug between sessions. One day following the last conditioning trial, a 20 min test trial was conducted in the same manner as baseline trials in which rats were free to explore both compartments. Change in time spent exploring the drug-paired compartment (test-baseline) was used to indicate preference (or aversion) to the compartment. Approximately 20 min following the final session, rats were perfused and brain samples were taken for immunohistochemical analysis (below). Locomotor activity was assessed by infrared light beams located in the conditioning compartments and the start box. […] Data were recorded in meters and an assessment of locomotor sensitization was made by subtracting the first session from the final session.
(§2) Experimenters were blinded to treatment groups.

[4] = tested on: male and female mice; type: in vivo, mouse; settings: s.c., compared to vehicle
[5] = tested on: Male Sprague-Dawley rats; test: Reinstatement of morphine-induced conditioned place preference; settings: priming dose 1.8 mg/Kg, 20 min, vs baseline
Description: Male Sprague-Dawley rats were exposed to a conditioned place preference (CPP) apparatus for two sessions to determine baseline (BL) preference for 2 distinct, unbiased chambers. […] The animals then underwent extinction procedures consisting of confinement for 45 min in the previously drug- and vehicle-paired chambers for 7 days.

[6] = tested on: Male Sprague Dawley rats; test: Conditioned place preference (CPP), 5-day procedure; type: in vivo, rat; settings: 5 days of conditioning
Description: as §1, §2

[7] = tested on: rats trained to discriminate morphine from vehicle; test: Drug discrimination (DD), morphine-trained rats; settings: for Maximum % drug-appropriate responding / response rates for food during test sessions: i.v.; for Maximum % drug-appropriate responding: male rats; for Response rate impairment %: highest dose tested (5.6 mg/Kg), percent of vehicle responding; for response rates for food during test sessions: compared to vehicle
Description: Drug Discrimination (DD): Rats were food deprived to approximately 85% of the weight of free feeding cohorts to establish operant responding for 45 mg food pellets (Bioserve, Frenchtown, N.J.) in standard operant chambers (MED Associates, St. Albans, Vt.). Rats were fed 10-20 g of standard food after daily DD sessions, and ˜3× the daily amount on weekends to maintain appropriate weight. DD consisted of 3 phases (Krivsky et al., 2006). In phase 1, rats were trained to lever press for food at a fixed ratio (FR) level 1 (i.e., 1 lever press=1 food pellet) using 2 levers with stimulus lights located above each lever and a food hopper between the levers during 120 min sessions. Responding on either lever extinguished the light and delivered a food pellet. […] Once >20 pellets were earned at FR9, sessions were shortened to 20 min and response requirements were set at FR10 and the left or right lever reinforced responding on alternate days. Once >20 pellets were earned on each lever at FR10, rats started phase 2 of DD training.
Only responses on the correct lever were reinforced and responses on the incorrect lever reset the response requirement on the correct lever. Criteria to move to phase 3 were as follows: >20 pellets per session, >90% injection appropriate lever responding, and <9 responses on the incorrect lever before the first food pellet reward.
Two paradigms were utilized to generate substitution curves: cumulative within-session and bolus between-session injections.
During substitution tests, both levers actively delivered food at an FR10 schedule. […] Doses were increased in ¼ log increments, with injections every 20 min followed 15 minutes later by DD sessions lasting 5 min each. […] The advantage of this procedure was that an entire dose-response was generated in one session.
Statistics: PRISM software (GraphPad, San Diego, Calif.) was used for one-way analysis of variance (ANOVA) with Newman-Keuls post-hoc comparisons to compare CPP groups, locomotor effects, hot plate, and DD response rates. Locomotor data recorded during the conditioning sessions were analyzed by 2-way ANOVA (session x drug) and data from the first session were subtracted from the final session to assess locomotor enhancement. Experimenters were blinded to treatment groups.

[8] = tested on: rats; settings: cited from earlier work
[9] = cumulative doses producing maximum antinociceptive effects; cited from earlier work
[10] = tested on: male rats; test: Forced abstinence and relapse test (oxycodone seeking); type: in vivo, rat; settings: 8th day of forced abstinence; i.v. pretreatment ZH853 1.8 or 3.2 mg/kg, oxycodone 0.32 mg/kg
Description: (§3) Self-administration (SA): Self-administration tests were conducted in standard operant chambers (MED Associates, St. Albans, Vt.). Infusions were delivered through TYGON tubing threaded through metal spring leashes and attached to exterior infusion pumps. 3-hour sessions were conducted Monday-Friday during the dark cycle. At the start of each session, the house light was illuminated, and levers extended. […] For the first 5 sessions, rats were trained to lever press for oxycodone (0.1 mg/kg/infusion) on a FR1 reinforcement schedule. For the following 10 sessions, the dose of oxycodone was decreased to 0.05 mg/kg/infusion to increase lever responding.
Forced abstinence and relapse test: Following acquisition of oxycodone self-administration, rats underwent 7 days of forced abstinence from oxycodone and exposure to the testing environment in their home cages. Animals were then split into treatment groups counterbalanced for total oxycodone intake, average number of infusions obtained in the last 3 sessions, and average number of active lever pressings over the last 3 sessions. On the 8th day of forced abstinence, rats were given an intravenous injection of 1.8 mg/kg ZH853, 3.2 mg/kg ZH853, or vehicle. The relapse test began 30 minutes later.

[11] = tested on: male rats; test: Maintenance of established oxycodone self-administration (substitution); type: in vivo, rat; settings: after acquisition of oxycodone SA; drug continued or substituted, i.v. infusions
Description: as §3
Maintenance of established oxycodone self-administration: Following acquisition of oxycodone self-administration, animals were split into treatment groups counterbalanced for total oxycodone intake, average number of infusions obtained in the last 3 sessions, and average number of active lever pressings over the last 3 sessions. Ten maintenance sessions were conducted in the same way as oxycodone acquisition except rats were either maintained on 0.1 mg/kg/infusion oxycodone or had drug availability substituted with equi-antinociceptive 1 mg/kg/infusion ZH853 or vehicle.

[12] = tested on: DBA mice; test: Hot plate antinociception test; type: in vivo, mouse; settings: 40 mg/Kg, s.c.

## CN1CC[C@]23c4c5ccc(O)c4O[C@H]2[C@@H](O)C=C[C@H]3[C@H]1C5.O=S(=O)(O)O [Morphine, Morphine sulfate, reference compound]
[1]
  surface area of TH-positive somas in pVTA: reduced
  volume of TH-positive somas in pVTA: reduced
[2]
  naloxone-induced place aversion: produces aversive behavior
[3]
  locomotor sensitization (LS), day 5 minus day 1: produced LS at all doses tested
[4]
  tail flick antinociception: increased the latency to tail flick
[5]
  reinstatement of morphine CPP after extinction: showed reinstatement of CPP
[6]; 3.2 mg/Kg i.v.
  conditioned place preference (CPP): produced conditioned place preference (CPP) effects
[6]; 1.8 and 5.6 mg/Kg i.v.
  conditioned place preference (CPP): did not produce significant CPP
[7]; bolus injections
  doses disrupting response rates during test sessions: ≥ 3.2 mg/kg
[7]; bolus injections made between sessions
  Maximum % drug-appropriate responding: 100%
[7]; bolus injections, sulfate
  Response rate impairment %: 77% and 77.1%
[7]; cumulative injections
  doses disrupting response rates during test sessions: ≥ 5.6 mg/kg
[7]; cumulative injections within a single session
  Maximum % drug-appropriate responding: 100%
[7]; cumulative injections, sulfate
  Response rate impairment %: 55% and 54.5%
[7]
  response rates for food during test sessions: reduced response rates compared to vehicle
[7]; training doses 3.2 mg/Kg s.c. and 1.8 mg/Kg i.v., compared to saline
  response rates for food during training: modestly impaired
[7]; training, after approximately 20 sessions
  appropriate drug-lever responding: > 90%
[8]; 12-hour SA sessions, 1 mg/Kg/infusion
  hourly SA intake: ~3.5 mg/kg/h

## NC(=O)[C@@H]1CCCCNC(=O)CC[C@@H](NC(=O)[C@@H](N)Cc2ccc(O)cc2)C(=O)N[C@@H](Cc2ccccc2)C(=O)N[C@@H](Cc2ccccc2)C(=O)N1 [ZH831, Tyr-c[D-Glu-Phe-Phe-Lys]-NH2]
[9]
  motor impairment on the Rotarod: lack of motor impairment
[7]; bolus injections
  Response rate impairment %: 21% and 21.1%
[7]; cumulative injections
  Response rate impairment %: 31% and 30.6%
[7]
  response rates for food during test sessions: not impaired
[8]; rat, in vivo
  reinforcing effects in SA/CPP procedures: did not produce reinforcing effects in SA/CPP procedures

## NC(=O)[C@@H]1CCC(=O)NCCCC[C@@H](NC(=O)[C@@H](N)Cc2ccc(O)cc2)C(=O)N[C@@H](Cc2c[nH]c3ccccc23)C(=O)N[C@@H](Cc2ccccc2)C(=O)N1 [ZH850, Tyr-c[D-Lys-Trp-Phe-Glu]-NH2]
[7]; bolus injections
  Response rate impairment %: 30% and 30.4%
[7]; cumulative injections
  Response rate impairment %: −0.3%
[7]
  response rates for food during test sessions: impaired response rates only after bolus, but not after cumulative injections; also recorded: reduced response rates compared to vehicle

## COc1ccc2c3c1O[C@H]1C(=O)CC[C@@]4(O)[C@@H](C2)N(C)CC[C@]314 [oxycodone, reference compound]
[10]
  oxycodone-seeking (SA behavior, active lever responding) in 1-hour relapse test: associated with a relapse to SA behavior
[11]
  self-administration behavior during maintenance sessions: the drug-seeking behavior was maintained

## COC(=O)/C=C/C(=O)N[C@@H]1CC[C@@]2(O)[C@H]3Cc4ccc(O)c5c4[C@@]2(CCN3CC2CC2)[C@H]1O5 [βFNA, beta-funaltrexamine]
[12]
  antinociceptive properties alone: no antinociceptive properties alone
